Patent US20220315554A1, “COMPOUNDS COMPRISING A […] LIGAND AND USE THEREOF” (priority 2019, published 2022)
Numbered stars: 1 amine (or outer) side, 2 acyl side, 3 side chain; on linkers, the order of the positions; unused ones are H or OH. Bridge positions count the residues as written; N and C are the ends. Square brackets hold non-standard residues; d marks the D form. Peptide text beside a SMILES is read from it. * marks the point of attachment. X3 = NC(=O)[C@H](CCCCNC(=O)CN1CCN(CC(=O)O)CCN(CC(=O)O)CCN(CC(=O)O)CC1)NC(=O)CCC(=O)NCCCOCCOCCOCCCN*; X47 = O=C(O)CN1CCN(CC(=O)O)CCN(CC(=O)NCCCCCNC(=O)CCC(=O)NCCCOCCOCCOCCCN*)CCN(CC(=O)O)CC1; mXylylene = c1cc(C[*:1])cc(C[*:2])c1; X44 = O=C(CC1CCN([*:1])CC1)[*:2]; 4Pal = N[C@@H](Cc1ccncc1)C(=O)O; 4Amb = NCc1ccc(C(=O)O)cc1; Hexanoyl = CCCCCC(=O)*; βAla = NCCC(=O)O

Legend:
[1] = target: T1, FAP-expressing human WI-38 fibroblasts (Homo sapiens, UniProt Q12884); test: Competitive FACS binding assay; conditions: pIC50 Category (FACS), competition with 3 nM Cy5-labeled compound, WI-38 fibroblasts, 4° C., 1 hour
T1 construct: FAP-expressing human WI-38 fibroblasts (ECACC) were cultured in EMEM; host or cells: WI-38 human fibroblasts
T1 sequence (Q12884 1-760): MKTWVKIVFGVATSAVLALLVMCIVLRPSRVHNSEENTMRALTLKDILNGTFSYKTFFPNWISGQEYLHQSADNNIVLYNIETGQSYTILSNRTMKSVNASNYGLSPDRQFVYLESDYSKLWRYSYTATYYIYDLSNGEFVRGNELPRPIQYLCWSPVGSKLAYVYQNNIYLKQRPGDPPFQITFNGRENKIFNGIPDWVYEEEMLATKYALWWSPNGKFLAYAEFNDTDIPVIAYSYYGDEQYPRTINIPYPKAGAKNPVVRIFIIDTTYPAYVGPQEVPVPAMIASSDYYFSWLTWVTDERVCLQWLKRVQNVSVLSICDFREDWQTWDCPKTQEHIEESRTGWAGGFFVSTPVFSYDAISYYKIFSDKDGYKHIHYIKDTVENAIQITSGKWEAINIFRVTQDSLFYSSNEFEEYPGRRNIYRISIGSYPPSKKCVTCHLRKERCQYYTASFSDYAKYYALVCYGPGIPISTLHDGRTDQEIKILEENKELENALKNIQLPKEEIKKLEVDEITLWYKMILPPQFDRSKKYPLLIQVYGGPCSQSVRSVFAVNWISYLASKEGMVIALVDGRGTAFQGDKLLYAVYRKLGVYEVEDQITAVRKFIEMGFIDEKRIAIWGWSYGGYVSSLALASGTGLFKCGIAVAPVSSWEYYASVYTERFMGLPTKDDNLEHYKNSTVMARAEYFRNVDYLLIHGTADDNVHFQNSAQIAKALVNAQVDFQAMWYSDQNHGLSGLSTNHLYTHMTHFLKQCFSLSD
Protocol: Cells were analyzed in an Attune NxT flow cytometer. […]

Human recombinant FAP = target: T2, Human recombinant FAP (Homo sapiens, UniProt Q12884); test: FRET-based FAP protease activity assay; assay type: biochemical; set-up: purchased R&D systems 3715-SE; conditions: pIC50 Category (Activity), recombinant human FAP, FRET substrate, 37° C.
T2 sequence (Q12884 1-760): T1 sequence (Q12884 1-760)

| Structure (SMILES) | IC50 [1] | IC50 (Human recombinant FAP) |
| --- | --- | --- |
| CCCCCC(=O)N[C@H]1CSCc2cccc(c2)CSC[C@@H](C(=O)N[C@@H](CC(=O)O)C(=O)N[C@@H](Cc2c[nH]cn2)C(=O)N[C@H](Cc2ccccc2)C(=O)N[C@@H](CCCNC(=N)N)C(=O)NCCCOCCOCCOCCCNC(=O)CCC(=O)N[C@@H](CCCCNC(=O)CN2CCN(CC(=O)O)CCN(CC(=O)O)CCN(CC(=O)O)CC2)C(N)=O)NC(=O)[C@H](Cc2ccccc2)NC(=O)[C@H](CCC(=O)O)NC(=O)[C@H]([C@@H](C)O)NC(=O)[C@@H]2CCCN2C(=O)[C@@H]2CCCN2C1=O [3BP-3276, Hex-[Cys(3MeBn)-Pro-Pro-Thr-Glu-Phe-Cys]-Asp-His-phe-Arg-Ttds-Lys(DOTA)-NH2] (Hexanoyl-CPPTEFCDH[dF]R-X3; linker 1-7 via mXylylene) | < 10 nM | < 10 nM |
| CCCCCC(=O)N[C@H]1CSCc2cccc(c2)CSC[C@@H](C(=O)N[C@@H](CC(=O)O)C(=O)N[C@@H](Cc2c[nH]cn2)C(=O)N[C@@H](Cc2ccncc2)C(=O)N[C@H](CCCNC(=N)N)C(=O)NCCCOCCOCCOCCCNC(=O)CCC(=O)N[C@@H](CCCCNC(=O)CN2CCN(CC(=O)O)CCN(CC(=O)O)CCN(CC(=O)O)CC2)C(N)=O)NC(=O)[C@H](Cc2ccccc2)NC(=O)[C@H](CCC(=O)O)NC(=O)[C@H]([C@@H](C)O)NC(=O)[C@@H]2CCCN2C(=O)[C@@H]2CCCN2C1=O [3BP-3277, Hex-[Cys(3MeBn)-Pro-Pro-Thr-Glu-Phe-Cys]-Asp-His-Ppa-arg-Ttds-Lys(DOTA)-NH2] (Hexanoyl-CPPTEFCDH[4Pal][dR]-X3; linker 1-7 via mXylylene) | < 10 nM | < 10 nM |
| CCCCCC(=O)N[C@H]1CSCc2cccc(c2)CSC[C@@H](C(=O)N[C@@H](CC(=O)O)C(=O)N2CCC(CC(=O)N[C@@H](CCCNC(=N)N)C(N)=O)CC2)NC(=O)[C@H](Cc2ccccc2)NC(=O)[C@H](CCC(=O)O)NC(=O)[C@H]([C@@H](C)O)NC(=O)[C@@H]2CCCN2C(=O)[C@@H]2CCCN2C1=O [3BP-3302, Hex-[Cys(3MeBn)-Pro-Pro-Thr-Glu-Phe-Cys]-Asp-Cmp-Arg-NH2] (Hexanoyl-CPPTEFCD[X44]R-NH2; linker 1-7 via mXylylene) | < 10 nM | < 10 nM |
| CCCCCC(=O)N[C@H]1CSCc2cccc(c2)CSC[C@@H](C(N)=O)NC(=O)[C@H](C)NC(=O)[C@H](CCC(=O)O)NC(=O)[C@H]([C@@H](C)O)NC(=O)[C@@H]2CCCN2C(=O)[C@@H]2CCCN2C1=O [3BP-3350, Hex-[Cys(3MeBn)-Pro-Pro-Thr-Glu-Ala-Cys]-NH2] (Hexanoyl-CPPTEAC-NH2; linker 1-7 via mXylylene) | > 1000 nM | 100 to 794 nM |
| C[C@@H](O)[C@@H]1NC(=O)[C@@H]2CCCN2C(=O)[C@@H]2CCCN2C(=O)[C@@H](NC(=O)[C@H](CCCCNC(N)=O)NC(=O)CCC(=O)NCCCOCCOCCOCCCNC(=O)CN2CCN(CC(=O)O)CCN(CC(=O)O)CCN(CC(=O)O)CC2)CSCc2cccc(c2)CSC[C@@H](C(=O)NCCC(=O)O)NC(=O)[C@H](Cc2ccccc2)NC(=O)[C@H](CCC(N)=O)NC1=O [3BP-3399, DOTA-Ttds-Hci-[Cys(3MeBn)-Pro-Pro-Thr-Gln-Phe-Cys]-Bal-OH] | > 1000 nM | > 1000 nM |
| CCCCCC[C@H](NC(=O)CCC(=O)NCCCOCCOCCOCCCNC(=O)CN1CCN(CC(=O)O)CCN(CC(=O)O)CCN(CC(=O)O)CC1)C(=O)N[C@H]1CSCc2cccc(c2)CSC[C@@H](C(=O)NCCC(=O)O)NC(=O)[C@H](Cc2ccccc2)NC(=O)[C@H](CCC(N)=O)NC(=O)[C@H]([C@@H](C)O)NC(=O)[C@@H]2CCCN2C(=O)[C@@H]2CCCN2C1=O [3BP-3400, DOTA-Ttds-Hgl-[Cys(3MeBn)-Pro-Pro-Thr-Gln-Phe-Cys]-Bal-OH] | > 1000 nM | 10 to 79.4 nM |
| CCCCCC(=O)N[C@H]1CSCc2cccc(c2)CSC[C@@H](C(=O)N[C@@H](CC(=O)O)C(=O)NCCCOCCOCCOCCCNC(=O)CCC(=O)NCCCCCNC(=O)CN2CCN(CC(=O)O)CCN(CC(=O)O)CCN(CC(=O)O)CC2)NC(=O)[C@H](Cc2ccccc2)NC(=O)[C@H](CCC(N)=O)NC(=O)[C@H]([C@@H](C)O)NC(=O)[C@@H]2CCCN2C(=O)[C@@H]2CCCN2C1=O [3BP-3404, Hex-[Cys(3MeBn)-Pro-Pro-Thr-Gln-Phe-Cys]-Asp-Ttds-Ape(DOTA)] (Hexanoyl-CPPTQFCD-X47; linker 1-7 via mXylylene) | < 10 nM | < 10 nM |

Second part, the molecule after the results:

| IC50 [1] | IC50 (Human recombinant FAP) | Structure (SMILES) |
| --- | --- | --- |
| < 10 nM | < 10 nM | CCCCCC(=O)N[C@H]1CSCc2cccc(c2)CSC[C@@H](C(=O)N[C@@H](CC(=O)O)C(=O)N[C@@H](CCCNC(=N)N)C(=O)O)NC(=O)[C@H](Cc2ccccc2)NC(=O)[C@H](CCC(=O)O)NC(=O)[C@H]([C@@H](C)O)NC(=O)[C@@H]2CCCN2C(=O)[C@@H]2CCCN2C1=O [3BP-3299, Hex-[Cys(3MeBn)-Pro-Pro-Thr-Glu-Phe-Cys]-Asp-Arg-NH2] (Hexanoyl-CPPTEFCDR-OH; linker 1-7 via mXylylene) |
| 10 to 79.4 nM | < 10 nM | CCCCCC(=O)N[C@H]1CSCc2cccc(c2)CSC[C@@H](C(=O)NCc2ccc(C(=O)N[C@@H](CCCNC(=N)N)C(N)=O)cc2)NC(=O)[C@H](Cc2ccccc2)NC(=O)[C@H](CCC(=O)O)NC(=O)[C@H]([C@@H](C)O)NC(=O)[C@@H]2CCCN2C(=O)[C@@H]2CCCN2C1=O [3BP-3303, Hex-[Cys(3MeBn)-Pro-Pro-Thr-Glu-Phe-Cys]-Pamb-Arg-NH2] (Hexanoyl-CPPTEFC[4Amb]R-NH2; linker 1-7 via mXylylene) |
| 100 to 794 nM | 10 to 79.4 nM | CCCCCC(=O)N[C@H]1CSCc2cccc(c2)CSC[C@@H](C(N)=O)NC(=O)[C@H](Cc2ccccc2)NC(=O)[C@H](CCC(=O)O)NC(=O)[C@H]([C@@H](C)O)NC(=O)[C@@H]2CCCN2C(=O)CNC1=O [3BP-3345, Hex-[Cys(3MeBn)-Gly-Pro-Thr-Glu-Phe-Cys]-NH2] (Hexanoyl-CGPTEFC-NH2; linker 1-7 via mXylylene) |
| > 1000 nM | 100 to 794 nM | CCCCCC(=O)N[C@H]1CSCc2cccc(c2)CSC[C@@H](C(N)=O)NC(=O)[C@H](Cc2ccccc2)NC(=O)[C@H](CCC(=O)O)NC(=O)[C@H]([C@@H](C)O)NC(=O)[C@@H]2CCCN2C(=O)[C@H](C)NC1=O [3BP-3346, Hex-[Cys(3MeBn)-Ala-Pro-Thr-Glu-Phe-Cys]-NH2] (Hexanoyl-CAPTEFC-NH2; linker 1-7 via mXylylene) |
| > 1000 nM | > 1000 nM | CCCCCC(=O)N[C@H]1CSCc2cccc(c2)CSC[C@@H](C(N)=O)NC(=O)[C@H](Cc2ccccc2)NC(=O)[C@H](C)NC(=O)[C@H]([C@@H](C)O)NC(=O)[C@@H]2CCCN2C(=O)[C@@H]2CCCN2C1=O [3BP-3348, Hex-[Cys(3MeBn)-Pro-Pro-Thr-Ala-Phe-Cys]-NH2] (Hexanoyl-CPPTAFC-NH2; linker 1-7 via mXylylene) |
| > 1000 nM | > 1000 nM | CCCCCC(=O)N[C@H]1CSCc2cccc(c2)CSC[C@@H](C(N)=O)NC(=O)[C@H](Cc2ccccc2)NC(=O)[C@H](CCC(=O)O)NC(=O)[C@H](C)NC(=O)[C@@H]2CCCN2C(=O)[C@@H]2CCCN2C1=O [3BP-3354, Hex-[Cys(3MeBn)-Pro-Pro-Ala-Glu-Phe-Cys]-NH2] (Hexanoyl-CPPAEFC-NH2; linker 1-7 via mXylylene) |
| 10 to 79.4 nM | 10 to 79.4 nM | CCCCCC(=O)N[C@H]1CSCc2cccc(c2)CSC[C@@H](C(=O)O)NC(=O)[C@H](Cc2ccccc2)NC(=O)[C@H](CCC(=O)O)NC(=O)[C@H]([C@@H](C)O)NC(=O)[C@@H]2CCCN2C(=O)[C@@H]2CCCN2C1=O [3BP-3370, Hex-[Cys(3MeBn)-Pro-Pro-Thr-Glu-Phe-Cys]-OH] (Hexanoyl-CPPTEFC-OH; linker 1-7 via mXylylene) |
| < 10 nM | 10 to 79.4 nM | CCCCCC(=O)N[C@H]1CSCc2cccc(c2)CSC[C@@H](C(=O)NCCC(=O)O)NC(=O)[C@H](Cc2ccccc2)NC(=O)[C@H](CCC(=O)O)NC(=O)[C@H]([C@@H](C)O)NC(=O)[C@@H]2CCCN2C(=O)[C@@H]2CCCN2C1=O [3BP-3371, Hex-[Cys(3MeBn)-Pro-Pro-Thr-Glu-Phe-Cys]-Bal-OH] (Hexanoyl-CPPTEFC[βAla]-OH; linker 1-7 via mXylylene) |
| 10 to 79.4 nM | 10 to 79.4 nM | CCCCCC(=O)N[C@H]1CSCc2cccc(c2)CSC[C@@H](C(N)=O)NC(=O)[C@H](Cc2c[nH]c3ccccc23)NC(=O)[C@H](CCC(N)=O)NC(=O)[C@H]([C@@H](C)O)NC(=O)[C@@H]2CCCN2C(=O)[C@@H]2CCCN2C1=O [3BP-3408, Hex-[Cys(3MeBn)-Pro-Pro-Thr-Gln-Trp-Cys]-NH2] (Hexanoyl-CPPTQWC-NH2; linker 1-7 via mXylylene) |
